The text below walks through data of patent publication US20210317092A1 (BAYER PHARMA AKTIENGESELLSCHAFT, priority 2016, published 2021).

The structures appear in SMILES notation. Like-named read-outs stand apart in the source and are kept apart here.

The experiment has as its target T1, human Bradykinin B1 receptor (Homo sapiens, UniProt P46663).
T1 construct: host or cells: CHO-K1
T1 sequence (P46663 1-353): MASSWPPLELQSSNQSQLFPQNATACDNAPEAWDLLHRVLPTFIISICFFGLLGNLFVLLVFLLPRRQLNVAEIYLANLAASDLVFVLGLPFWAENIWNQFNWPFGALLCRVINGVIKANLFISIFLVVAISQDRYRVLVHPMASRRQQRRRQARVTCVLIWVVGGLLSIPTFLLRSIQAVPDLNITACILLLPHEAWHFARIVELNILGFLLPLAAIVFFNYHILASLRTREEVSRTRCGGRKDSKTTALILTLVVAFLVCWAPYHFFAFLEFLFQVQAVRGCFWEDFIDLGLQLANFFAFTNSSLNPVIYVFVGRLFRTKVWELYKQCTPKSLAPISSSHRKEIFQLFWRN
Description: Calcium flux Assay (FLIPR) with recombinant CHO-K1 cells expressing human Bradykinin B1 receptor, in presence (hB1 IC50) or absence (hB1 free IC50) of 0.1% BSA. Type of experiment: cell-based. As for the experimental part: The potency to inhibit the Bradykinin B1 receptor was determined for the compounds of this invention in a cell-based fluorescent calcium-mobilisation assay. The assay measures the ability of test compounds to inhibit Bradykinin B1 receptor agonist-induced increase of intracellular free Ca^2+ in the cell line expressing Bradykinin B1 receptor. […] The change of the intracellular Ca^2+ concentration is monitored with a fluorescent plate reader FLIPR TETRA® (Molecular Devices).
Calcium flux Assays (FLIPR) with cells expressing human Bradykinin B1 receptor (hB1)
CHO-K1 cell line expressing human Bradykinin B1 receptor was purchased from Euroscreen (Gosselies, Belgium, with reference name hB1-D1). The cells were grown in Nutrient Mixture Ham's F12 (Sigma) containing 10% Foetal bovine serum (Sigma) and 400 μg/mL G418 (Sigma), 5 μg/mL puromycim (Sigma). […]
Cells were seeded in a volume of 50 μL in medium without antibiotics and incubated overnight in a humidified atmosphere with 5% CO2 at 37° C. […] The calcium indicator loaded cells were incubated at 37° C. for 2 hrs. Extracellular dye was then removed and each well was filled with 45 μL of assay buffer. Cell plates were kept in dark until used. Compound examples were assayed at 8 concentrations in triplicate. Serial 10-fold dilutions in 100% DMSO were made at a 100-times higher concentration than the final concentration, and then diluted 1:10 in assay buffer. 5 μL of each diluted compound was added to the well of cell plates (yielding final concentration with 1% DMSO), and incubated for 30 min at 28° C. before the addition of Bradykinin B1 receptor agonist on the FLIPR instrument.
A peptide antagonist Lys-(Des-Arg-Leu)-Bradykinin (Bachem, Brackley) at 20 µM was used to determine the full inhibition as control.
Peak fluorescence was used to determine the response to agonist obtained at each concentration of compound examples by the following equation:
% Response=100*(RFU(compound)−RFU(control))/(RFU(DMSO)−RFU(control)) • RFU means relative fluorescence units. • Control means full inhibition by the peptide antagonist Lys-(Des-Arg-Leu)-Bradykinin at 20 µM.
The response values were plotted against the logarithm of the compound concentrations. The compound examples were tested in triplicates per plate and mean values were plotted in Excel XLfit to determine IC50 values, percentage of maximal inhibition and the Hill slopes.
In general terms: Calcium assays in cells follow changes in intracellular calcium, usually with a dye or a luminescent sensor.

[1] abbreviates: in presence of 0.1% BSA, read-out: hB1 IC50.
The mark [2] stands for this setting: in absence of 0.1% BSA, read-out: hB1 free IC50.

For the molecule `COc1ccc(-c2ccc(NC(=O)C(C)(C)c3cccc(Cl)c3)cc2-c2nnn[nH]2)cc1OC` [Example 61, 2-(3-chlorophenyl)-N-[3′,4′-dimethoxy-2-(1H-tetrazol-5-yl)biphenyl-4-yl]-2-methyl-propanamide], the IC50 under setting [1] is 2050 nM.
`COc1ccc(-c2ccc(NC(=O)C3(c4cccc(Cl)c4)CCC3)cc2-c2nnn[nH]2)cc1OC` [Example 62, 1-(3-chlorophenyl)-N-[3′,4′-dimethoxy-2-(1H-tetrazol-5-yl)biphenyl-4-yl]cyclobutane-carboxamide]: the IC50 under setting [1] worked out at 2430 nM.
Still for that read-out and setting: with `CCOc1ccc(-c2ccc(NC(=O)C(C)(C)c3cccc(Cl)c3)cc2-c2nnn[nH]2)cn1` [Example 67, 2-(3-chlorophenyl)-N-[4-(6-ethoxypyridin-3-yl)-3-(1H-tetrazol-5-yl)phenyl]-2-methyl-propanamide] the figure was 394 nM; with `CCOc1ccc(-c2ccc(NC(=O)C3(c4cccc(Cl)c4)CCC3)cc2-c2nnn[nH]2)cn1` [Example 68, 1-(3-chlorophenyl)-N-[4-(6-ethoxypyridin-3-yl)-3-(1H-tetrazol-5-yl)phenyl] cyclobutane-carboxamide], 1410 nM.
Consider `CCOc1ccc(-c2ccc(NC(=O)C3(c4ccc(OC(F)(F)F)cc4)CC3)cc2-c2nnn[nH]2)cn1` [Example 74, N-[4-(6-ethoxypyridin-3-yl)-3-(1H-tetrazol-5-yl)phenyl]-1-[4-(trifluoromethoxy)phenyl] cyclopropane-carboxamide], for which the IC50 reads like this: under setting [2], 7.76 nM; under setting [1], 18.7 nM.
The corresponding values for `CCOc1ccc(-c2ccc(NC(=O)C3(c4ccc(Cl)cc4F)CC3)cc2-c2nnn[nH]2)cn1` [Example 75, 1-(4-chloro-2-fluorophenyl)-N-[4-(6-ethoxypyridin-3-yl)-3-(1H-tetrazol-5-yl)phenyl] cyclopropane-carboxamide] are 14.1 nM and 22.7 nM.
Turning to `CCOc1ccc(-c2ccc(NC(=O)C3(c4ccc(C)c(F)c4)CC3)cc2-c2nnn[nH]2)cn1` [Example 76, N-[4-(6-ethoxypyridin-3-yl)-3-(1H-tetrazol-5-yl)phenyl]-1-(3-fluoro-4-methylphenyl) cyclopropane-carboxamide], the IC50 under setting [2] is 12 nM and the IC50 under setting [1] came to 24 nM.
With `CCOc1ccc(-c2ccc(NC(=O)C3(c4cc(F)cc(F)c4)CC3)cc2-c2nnn[nH]2)cn1` [Example 84, 1-(3,5-difluorophenyl)-N-[4-(6-ethoxypyridin-3-yl)-3-(1H-tetrazol-5-yl)phenyl] cyclopropane-carboxamide], the IC50 amounted to 19 nM under setting [2] and 41.8 nM under setting [1].
On to `CCOc1ccc(-c2ccc(NC(=O)C3(c4ccc(Cl)cn4)CC3)cc2-c2nnn[nH]2)cn1` [Example 85, 1-(5-chloropyridin-2-yl)-N-[4-(6-ethoxypyridin-3-yl)-3-(1H-tetrazol-5-yl)phenyl] cyclopropane-carboxamide], for which the IC50 under setting [1] was found to be 63.1 nM.
For the molecule `CCOc1ccc(-c2ccc(NC(=O)C3(c4ccc(F)c(OC)c4)CC3)cc2-c2nnn[nH]2)cn1` [Example 87, N-[4-(6-ethoxypyridin-3-yl)-3-(1H-tetrazol-5-yl)phenyl]-1-(4-fluoro-3-methoxyphenyl) cyclopropane-carboxamide], the IC50 is, setting by setting: under setting [2], 60 nM; under setting [1], 88 nM.
For `CCOc1ccc(-c2ccc(NC(=O)C3(C)CC3)cc2-c2nnn[nH]2)cn1` [Example 88, N-[4-(6-ethoxypyridin-3-yl)-3-(1H-tetrazol-5-yl)phenyl]-1-methyl-cyclopropane-carboxamide], under setting [1], the 50% inhibitory concentration (IC50) was 111 nM.
`CCOc1ccc(-c2ccc(NC(=O)C3(CC(C)C)CC3)cc2-c2nnn[nH]2)cn1` [Example 89, N-[4-(6-ethoxypyridin-3-yl)-3-(1H-tetrazol-5-yl)phenyl]-1-isobuty-l cyclopropane-carboxamide]: the IC50 was found to be 541 nM under setting [2] and 615 nM under setting [1].
On to `CCOc1ccc(-c2ccc(NC(=O)C3(C(C)C)CC3)cc2-c2nnn[nH]2)cn1` [Example 90, N-[4-(6-ethoxypyridin-3-yl)-3-(1H-tetrazol-5-yl)phenyl]-1-isopropyl-cyclopropane-carboxamide], for which, under setting [1], the IC50 came out at 1560 nM.
Consider `CCOc1ccc(-c2ccc(NC(=O)C3(c4ccccc4Cl)CC3)cc2-c2nnn[nH]2)cn1` [Example 93, 1-(2-chlorophenyl)-N-[4-(6-ethoxypyridin-3-yl)-3-(1H-tetrazol-5-yl)phenyl] cyclopropane-carboxamide], for which the IC50 amounted to 39.3 nM under setting [2] and 37.1 nM under setting [1].
Regarding `CCOc1ccc(-c2ccc(NC(=O)C3(c4cccc(CC)c4)CC3)cc2-c2nnn[nH]2)cn1` [Example 95, N-[4-(6-ethoxypyridin-3-yl)-3-(1H-tetrazol-5-yl)phenyl]-1-(3-ethylphenyl) cyclopropane-carboxamide], the concentration for half-maximal inhibition (IC50) turned out to be 10.4 nM under setting [2] and 14.5 nM under setting [1].
`CCOc1ccc(-c2ccc(NC(=O)C3(c4cc(F)cc(OC)c4)CC3)cc2-c2nnn[nH]2)cn1` [Example 103, N-[4-(6-ethoxypyridin-3-yl)-3-(1H-tetrazol-5-yl)phenyl]-1-(3-fluoro-5-methoxyphenyl) cyclopropane-carboxamide]: the concentration for half-maximal inhibition (IC50) under setting [1] is 28.1 nM.
For `CCOc1ccc(-c2ccc(NC(=O)C3(c4cc(OC)ccc4F)CC3)cc2-c2nnn[nH]2)cn1` [Example 104, N-[4-(6-ethoxypyridin-3-yl)-3-(1H-tetrazol-5-yl)phenyl]-1-(2-fluoro-5-methoxyphenyl) cyclopropane-carboxamide], the half-maximal inhibitory concentration (IC50) under setting [1] came to 46.4 nM.
Still for that read-out and setting: with `CCOc1ccc(-c2ccc(NC(=O)C3(c4cccc(F)c4Cl)CC3)cc2-c2nnn[nH]2)cn1` [Example 106, 1-(2-chloro-3-fluorophenyl)-N-[4-(6-ethoxypyridin-3-yl)-3-(1H-tetrazol-5-yl)phenyl] cyclopropane-carboxamide] the figure was 56 nM.
Take `CCOc1ccc(-c2ccc(NC(=O)C3(c4cccc(Cl)n4)CC3)cc2-c2nnn[nH]2)cn1` [Example 107, 1-(6-chloropyridin-2-yl)-N-[4-(6-ethoxypyridin-3-yl)-3-(1H-tetrazol-5-yl)phenyl] cyclopropane-carboxamide]: the IC50 is, setting by setting: under setting [2], 177 nM; under setting [1], 134 nM.
`CCOc1ccc(-c2ccc(NC(=O)C3(c4ccc(Cl)nc4)CC3)cc2-c2nnn[nH]2)cn1` [Example 108, 1-(6-chloropyridin-3-yl)-N-[4-(6-ethoxypyridin-3-yl)-3-(1H-tetrazol-5-yl)phenyl] cyclopropane-carboxamide]: the IC50 under setting [1] was found to be 338 nM.
The same measure, in the same setting: with `CCOc1ccc(-c2ccc(NC(=O)C3(C4CCC(C)(C)CC4)CC3)cc2-c2nnn[nH]2)cn1` [Example 109, 1-(4,4-dimethylcyclo-hexyl)-N-[4-(6-ethoxypyridin-3-yl)-3-(1H-tetrazol-5-yl)phenyl] cyclopropane-carboxamide] the figure was 12.2 nM; with `COc1ccc(-c2ccc(NC(=O)C3(c4ccc(C)cc4)CC3)cc2-c2nnn[nH]2)cc1` [Example 115, N-[4′-methoxy-2-(1H-tetrazol-5-yl)biphenyl-4-yl]-1-(4-methylphenyl) cyclopropane-carboxamide], 169 nM; with `COc1ccc(-c2ccc(NC(=O)C3(c4cccc(Cl)c4)CC3)cc2-c2nnn[nH]2)cc1C` [Example 116, 1-(3-chlorophenyl)-N-[4′-methoxy-3′-methyl-2-(1H-tetrazol-5-yl)biphenyl-4-yl]cyclopropane carboxamide], 177 nM.
On the same count and under the same terms, with `COc1ccc(-c2ccc(NC(=O)C3(c4cccc(Cl)c4)CC3)cc2-c2nnn[nH]2)cc1Cl` [Example 117, N-[3′-chloro-4′-methoxy-2-(1H-tetrazol-5-yl)biphenyl-4-yl]-1-(3-chlorophenyl) cyclopropane-carboxamide] the figure was 448 nM; with `COc1ccc(-c2ccc(NC(=O)C3(c4cccc(Cl)c4)CC3)cc2-c2nnn[nH]2)c(C)c1` [Example 118, 1-(3-chlorophenyl)-N-[4′-methoxy-2′-methyl-2-(1H-tetrazol-5-yl)biphenyl-4-yl]cyclopropane carboxamide], 1820 nM.

The IC50 is the concentration that inhibits the measured activity by half.
